The target in the assay is hTREM2 (Homo sapiens, UniProt Q9NZC2). The experiment in a line: TREM2 activity by cellular Syk phosphorylation (AlphaScreen/AlphaLISA) in TREM2/DAP12-HEK cells, used for Examples 1-305. It counts as cell-based. The arrangement: expressed in transfected cells. As to conditions: HEK293 Cells. In a few lines:
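Single-cell-cloned HEK293 cells overexpressing TREM2 and DAP12, seeded 20 h, exposed to test articles (1% final DMSO) for 45 min at room temperature. Lysates read for phospho-Syk (Tyr525/526) vs total Syk by AlphaScreen. Signal normalised as percent of control between isotype IgG and 100 nM anti-TREM2 antibody; 4-parameter logistic fit.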
On the technique in general: Bead proximity is the source of the signal in Alpha formats.

Each structure is given as a SMILES string. Some results are limits rather than exact numbers.

Sequence of hTREM2 (Q9NZC2 19-230): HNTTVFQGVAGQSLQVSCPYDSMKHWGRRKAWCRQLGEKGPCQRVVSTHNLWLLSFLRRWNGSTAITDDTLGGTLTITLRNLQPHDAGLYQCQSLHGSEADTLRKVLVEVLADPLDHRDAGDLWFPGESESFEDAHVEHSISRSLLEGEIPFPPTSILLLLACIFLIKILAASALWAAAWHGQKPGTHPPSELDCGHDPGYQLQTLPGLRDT
Sequence of hTREM2 (O43914 22-113 partner): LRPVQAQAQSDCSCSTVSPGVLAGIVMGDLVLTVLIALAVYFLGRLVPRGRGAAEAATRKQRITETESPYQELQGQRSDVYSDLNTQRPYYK

Regarding `Cc1cc([C@@H]2C[C@@H](c3nc(-c4ccc(Cl)cc4F)c4ccc(C)nc4n3)CCO2)ccn1` (single isomer, unassigned) [Example 220], the EC50 lay within 50 to 500 nM; the “hTREM2 Emax” value was “+++ (Emax>150 and ≤250)”.

`Cc1cc([C@H]2C[C@H](c3nc(-c4ccc(Cl)cc4F)c4ccc(C)nc4n3)CCO2)ccn1` (single isomer, unassigned) [Example 219]: the EC50 fell in the range of 50 to 500 nM and the “hTREM2 Emax” value was “++++ (Emax>250)”.

For `Cc1cnc2cc(N3CCO[C@@H](c4cnn(C)c4)C3)nc(-c3ccc(Cl)cc3F)c2n1` [Example 74, 5-(4-chloro-2-fluorophenyl)-3-methyl-7-((2S)-2-(1-methyl-1H-pyrazol-4-yl)-4-morpholinyl)pyrido[3,4-b]pyrazine], the EC50 is 50 to 500 nM and the “hTREM2 Emax” value was “++++ (Emax>250)”.

As to `Cc1cc([C@H]2CN(c3nc(-c4ccc(F)cc4F)c4ncc(C)nc4n3)CCO2)ccn1` [Example 8, 4-(2,4-difluorophenyl)-7-methyl-2-((2S)-2-(2-methyl-4-pyridinyl)-4-morpholinyl)pteridine], the EC50 was ≤ 50 nM; the “hTREM2 Emax” value is “++ (Emax>100 and ≤150)”.

As for `Cc1nc2nc(N3CCO[C@@H](c4cnn(C)c4)C3)nc([C@H]3CCC(C)(C)C3)c2nc1C` [Example 302, (S)-4-(4-((S)-3,3-dimethylcyclopentyl)-6,7-dimethylpteridin-2-yl)-2-(1-methyl-1H-pyrazol-4-yl)morpholine], the EC50 was 50 to 500 nM; the “hTREM2 Emax” value is “+ (Emax>45 and ≤100)”.

Consider `Cc1cnc2c(C34CC(C(F)(F)F)(C3)C4)nc(N3CCO[C@@H](c4cnn(C5CC5)c4)C3)nc2n1` [Example 231, (S)-2-(1-cyclopropyl-1H-pyrazol-4-yl)-4-(7-methyl-4-(3-(trifluoromethyl)bicyclo[1.1.1]pentan-1-yl)pteridin-2-yl)morpholine], for which the EC50 was ≤ 50 nM; the “hTREM2 Emax” value was “+++ (Emax>150 and ≤250)”.

`Cc1cnc2c(-c3ccc(F)cc3F)nc(N3CCO[C@H]([C@@H]4CCOC4)C3)nc2n1` [Example 253, (R)-4-(4-(2,4-difluorophenyl)-7-methylpteridin-2-yl)-2-((R)-tetrahydrofuran-3-yl)morpholine]: the EC50 fell in the range of 3000 to 100000 nM; the “hTREM2 Emax” value was “+++ (Emax>150 and ≤250)”.

As for `Cc1cc([C@@H]2C[C@@H](c3nc(-c4ccc(Cl)cc4F)c4nc(C)c(C)nc4n3)CCO2)ccn1` [Example 272, 4-(4-chloro-2-fluorophenyl)-6,7-dimethyl-2-((2S,4S)-2-(2-methylpyridin-4-yl)tetrahydro-2H-pyran-4-yl)pteridine], the EC50 was ≤ 50 nM and the “hTREM2 Emax” value is listed as “++++ (Emax>250)”.

For `Cc1cc([C@H]2C[C@H](c3nc(-c4ccc(F)cc4F)c4ccc(C)nc4n3)CCO2)ccn1` [Example 278, 4-(2,4-difluorophenyl)-7-methyl-2-((2R,4R)-2-(2-methylpyridin-4-yl)tetrahydro-2H-pyran-4-yl)pyrido [2,3-d]pyrimidine], the EC50 was 500 to 3000 nM; the “hTREM2 Emax” value is “+++ (Emax>150 and ≤250)”.

In the case of `Cc1nc2nc(N3CCO[C@@H](c4cnn(C)c4)C3)nc(N3C[C@@H]4[C@H](C3)C4(F)F)c2nc1C` [Example 27, 4-((1R,5S)-6,6-difluoro-3-azabicyclo[3.1.0]hexan-3-yl)-6,7-dimethyl-2-((2S)-2-(1-methyl-1H-pyrazol-4-yl)-4-morpholinyl)pteridine], the EC50 is 500 to 3000 nM; the “hTREM2 Emax” value was “++ (Emax>100 and ≤150)”.

`Cc1nc2nc([C@@H]3CCO[C@H](c4cnn(C5CC5)c4)C3)nc(-c3ccc(F)cc3F)c2nc1C` [Example 241, 2-((2S,4R)-2-(1-cyclopropyl-1H-pyrazol-4-yl)tetrahydro-2H-pyran-4-yl)-4-(2,4-difluorophenyl)-6,7-dimethylpteridine]: the EC50 is ≤ 50 nM; the “hTREM2 Emax” value is “+++ (Emax>150 and ≤250)”.

Consider `Cc1cc2c(-c3ccc(Cl)cc3F)nc(N3CCO[C@@H](c4cnn(C)c4)C3)nc2nc1C` [Example 103, 4-(4-chloro-2-fluorophenyl)-6,7-dimethyl-2-((2S)-2-(1-methyl-1H-pyrazol-4-yl)-4-morpholinyl)pyrido[2,3-d]pyrimidine], for which the EC50 was ≤ 50 nM and the “hTREM2 Emax” value was “++++ (Emax>250)”.

With `Cc1nc2nc(N3CCO[C@@H](c4cnn(C)c4)C3)nc(C3CC4(C3)CC(F)(F)C4)c2nc1C` [Example 46, 4-(6,6-difluorospiro[3.3]heptan-2-yl)-6,7-dimethyl-2-((2S)-2-(1-methyl-1H-pyrazol-4-yl)-4-morpholinyl)pteridine], the EC50 is ≤ 50 nM; the “hTREM2 Emax” value was “+++ (Emax>150 and ≤250)”.

Turning to `Cc1cc([C@@H]2C[C@@H](c3nc(-c4ccc(F)cc4F)c4nc(C)c(C)nc4n3)CCO2)ccn1` (single isomer, unassigned) [Example 212], the EC50 is 500 to 3000 nM and the “hTREM2 Emax” value is reported as “++++ (Emax>250)”.

Consider `Cc1cc([C@H]2CN(c3nc4nc(C)cnc4c([C@H]4C[C@H](C(F)(F)F)C4)n3)CCO2)cnn1` [Example 279, (S)-4-(7-methyl-4-((1r,3S)-3-(trifluoromethyl)cyclobutyl)pteridin-2-yl)-2-(6-methylpyridazin-4-yl)morpholine], for which the EC50 was in the range of 500 to 3000 nM; the “hTREM2 Emax” value is “+++ (Emax>150 and ≤250)”.

For `COc1cc([C@H]2CN(c3cc4nc(C)ccc4c(-c4ccc(Cl)cc4F)n3)CCO2)ccn1` [Example 149, 5-(4-chloro-2-fluorophenyl)-7-((2S)-2-(2-methoxy-4-pyridinyl)-4-morpholinyl)-2-methyl-1,6-naphthyridine], the concentration giving a half-maximal response (EC50) was 50 to 500 nM and the “hTREM2 Emax” value is on record as “++++ (Emax>250)”.

Take `CCc1ccc2c(-c3ccc(Cl)cc3F)nc(N3CCO[C@@H](c4cnn(C)c4)C3)cc2n1` [Example 238, (S)-4-(5-(4-chloro-2-fluorophenyl)-2-ethyl-1,6-naphthyridin-7-yl)-2-(1-methyl-1H-pyrazol-4-yl)morpholine]: the EC50 is 3000 to 100000 nM; the “hTREM2 Emax” value was “+ (Emax>45 and ≤100)”.

For `Cc1ccc2c(-c3ccc(Cl)cc3F)nc([C@@H]3CCO[C@H](c4cnn(C5CC5)c4)C3)nc2n1` [Example 260, 4-(4-chloro-2-fluorophenyl)-2-((2S,4R)-2-(1-cyclopropyl-1H-pyrazol-4-yl)tetrahydro-2H-pyran-4-yl)-7-methylpyrido [2,3-d]pyrimidine], the EC50 was 500 to 3000 nM; the “hTREM2 Emax” value was “+++ (Emax>150 and ≤250)”.

Turning to `Cc1cc([C@H]2CN(c3nc4nc(C)cnc4c([C@H]4C[C@@H](C(F)(F)F)C4)n3)CCO2)ccn1` [Example 15, 7-methyl-2-((2S)-2-(2-methyl-4-pyridinyl)-4-morpholinyl)-4-(cis-3-(trifluoromethyl)cyclobutyl)pteridine], the EC50 lay within 50 to 500 nM; the “hTREM2 Emax” value is “++ (Emax>100 and ≤150)”.

With `Cc1nc2nc(N3CCO[C@@H](c4cnn(C)c4)C3)cc(-c3ccc(Cl)cc3F)c2nc1C` [Example 160, 8-(4-chloro-2-fluorophenyl)-2,3-dimethyl-6-((2S)-2-(1-methyl-1H-pyrazol-4-yl)-4-morpholinyl)pyrido [2,3-b]pyrazine], the EC50 is ≤ 50 nM and the “hTREM2 Emax” value is on record as “++++ (Emax>250)”.

Turning to `Cc1ccc(-c2nc(N3CCO[C@@H](c4cnn(C)c4)C3)nc3nc(C)ccc23)c(F)c1` [Example 94, 4-(2-fluoro-4-methylphenyl)-7-methyl-2-((2S)-2-(1-methyl-1H-pyrazol-4-yl)-4-morpholinyl)pyrido[2,3-d]pyrimidine], the EC50 lay in the range of 50 to 500 nM; the “hTREM2 Emax” value is “+++ (Emax>150 and ≤250)”.

As to `Cc1nc2nc([C@@H]3CCO[C@@H](c4cnn(C)c4)C3)nc([C@H]3C[C@H](C(F)(F)F)C3)c2nc1C` (single isomer, unassigned) [Example 204], the EC50 was in the range of 500 to 3000 nM and the “hTREM2 Emax” value is “++++ (Emax>250)”.

As for `Cc1nc2nc(N3CCO[C@@H](c4cnn(C)c4)C3)nc([C@H]3C[C@H](C(F)F)C3)c2nc1C` [Example 45, 4-(trans-3-(difluoromethyl)cyclobutyl)-6,7-dimethyl-2-((2S)-2-(1-methyl-1H-pyrazol-4-yl)-4-morpholinyl)pteridine], the concentration for a half-maximal effect (EC50) lay in the range of 50 to 500 nM; the “hTREM2 Emax” value is “++ (Emax>100 and ≤150)”.

Turning to `Cc1ncc([C@H]2C[C@@H](c3nc(-c4ccc(Cl)cc4F)c4nc(C)c(C)nc4n3)CCO2)cn1` (single isomer, unassigned) [Example 209], the EC50 fell in the range of 50 to 500 nM; the “hTREM2 Emax” value was “+++ (Emax>150 and ≤250)”.

Turning to `Cc1nc2cc(N3CCO[C@@H](c4cnn(C)c4)C3)nc([C@H]3C[C@H](C(F)(F)F)C3)c2nc1C` [Example 80, 2,3-dimethyl-7-((2S)-2-(1-methyl-1H-pyrazol-4-yl)-4-morpholinyl)-5-(trans-3-(trifluoromethyl)cyclobutyl)pyrido[3,4-b]pyrazine], the EC50 was in the range of 50 to 500 nM; the “hTREM2 Emax” value is “++ (Emax>100 and ≤150)”.

As for `Cc1cc2c(-c3ccc(Cl)cc3F)nc([C@H]3C[C@@H](C)O[C@@H](c4cnn(C)c4)C3)nc2nc1C` (single isomer, unassigned) [Example 229], the EC50 is ≤ 50 nM; the “hTREM2 Emax” value is “+++ (Emax>150 and ≤250)”.

On to `Cc1cnc2c(n1)nc(N1CCO[C@@H](c3cnn(C4CC4)c3)C1)nc2[C@H]1C[C@H](C(F)(F)F)C1` [Example 13, 2-((2S)-2-(1-cyclopropyl-1H-pyrazol-4-yl)-4-morpholinyl)-7-methyl-4-(trans-3-(trifluoromethyl)cyclobutyl)pteridine], for which the EC50 was ≤ 50 nM; the “hTREM2 Emax” value was “+ (Emax>45 and ≤100)”.

Take `Cc1nc2nc([C@@H]3CCO[C@H](c4cnn(C)c4)C3)nc(-c3ccc(Cl)cc3F)c2nc1C` [Example 242, 4-(4-chloro-2-fluorophenyl)-6,7-dimethyl-2-((2S,4R)-2-(1-methyl-1H-pyrazol-4-yl)tetrahydro-2H-pyran-4-yl)pteridine]: the EC50 was ≤ 50 nM; the “hTREM2 Emax” value is “+++ (Emax>150 and ≤250)”.

By EC50 is commonly meant the midpoint of the concentration-response curve.

These data come from patent US11884675B2, “Heterocyclic compounds as triggering receptor expressed on myeloid cells 2 agonists and methods of use” (AMGEN INC., priority 2020, dated 2024).
